The record followed here is US20120276012A1, “Method of Treatment and Screening Method” (ISIS INNOVATION LIMITED, priority 2009, published 2012).

In assay [1] the target is T1, creatine transporter (CrT) (Homo sapiens, UniProt P48029).
T1 construct: expressed in transfected cells
T1 sequence (P48029 1-635): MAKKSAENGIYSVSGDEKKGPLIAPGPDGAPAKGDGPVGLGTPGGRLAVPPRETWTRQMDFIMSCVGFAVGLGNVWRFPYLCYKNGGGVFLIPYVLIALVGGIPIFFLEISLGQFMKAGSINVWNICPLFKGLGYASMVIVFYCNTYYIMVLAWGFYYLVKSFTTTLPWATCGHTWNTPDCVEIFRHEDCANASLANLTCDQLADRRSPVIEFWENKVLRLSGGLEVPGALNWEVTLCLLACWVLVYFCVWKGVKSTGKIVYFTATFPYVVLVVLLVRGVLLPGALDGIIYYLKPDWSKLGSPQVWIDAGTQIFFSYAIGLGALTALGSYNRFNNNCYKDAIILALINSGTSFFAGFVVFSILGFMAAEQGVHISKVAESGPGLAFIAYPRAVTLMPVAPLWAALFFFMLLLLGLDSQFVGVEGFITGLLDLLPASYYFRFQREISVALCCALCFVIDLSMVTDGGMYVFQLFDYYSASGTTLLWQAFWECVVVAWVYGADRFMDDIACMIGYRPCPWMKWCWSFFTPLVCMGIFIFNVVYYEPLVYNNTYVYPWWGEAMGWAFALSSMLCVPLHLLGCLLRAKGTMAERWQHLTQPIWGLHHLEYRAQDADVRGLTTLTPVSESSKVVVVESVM
Put plainly: 14C-labelled creatine uptake in fibroblast 3T3 cells that stably express the CrT. The assay is classed as cell-based. Particulars: 3T3 cells stably expressing CrT; increasing extracellular β-GPA concentration; 14C-creatine, 37° C. for 60 min; FIG. 5B.
Experimental: We have developed a sensitive and specific assay for measuring ^14C-labelled Cr uptake in cell culture using fibroblast 3T3 cells that stably express the CrT. Cells (1×10^5 cells) were plated into 24-well-plates, and incubated for 18 hours to form monolayers. […] After incubation at 37° C. for 60 min (95% air, 5% CO2), media was aspirated, cells solubilised and lysed using PBS/TritonX-100. A scintillation counter measures signal attributed to intracellular radiolabel, with Cr uptake estimated against known standards. Control wells contain no test compound to measure normal background uptake, and control wells containing only cells are used for protein quantification.

In assay [2] the target is T2, creatine transporter (CrT) (Mus musculus, UniProt Q8VBW1).
T2 construct: these cells express endogenous CrT; endogenous in cells; host or cells: HL-1 cells (mouse atrial cardiomyocyte-like)
T2 sequence (Q8VBW1 1-635): T1 sequence (P48029 1-635) with A24V, P25S, V38A, T42A, G223T, A368T, V539I
In words: 14C-labelled creatine uptake in HL-1 cells expressing endogenous CrT. The assay is classed as cell-based. Particulars: HL1 cells incubated with 250 μM creatine; increasing extracellular β-GPA concentration; FIG. 5B.
Experimental: Cells (1×10^5 cells) were plated into 24-well-plates, and incubated for 18 hours to form monolayers. Each well was spiked with 10 μl (37 kBq) ^14C-creatine, 500 μM of non-radiolabelled Cr, and 30 μM of test compound (β-guanidinopropionic acid) (performed in triplicate). After incubation at 37° C. for 60 min (95% air, 5% CO2), media was aspirated, cells solubilised and lysed using PBS/TritonX-100. A scintillation counter measures signal attributed to intracellular radiolabel, with Cr uptake estimated against known standards. Control wells contain no test compound to measure normal background uptake, and control wells containing only cells are used for protein quantification. […] HL-1 cells that are derived from mouse atrial tumour cells and have a beating cardiomyocyte-like phenotype. […] Changes in creatine uptake were measured using the ^14C screen described above.

Structures are written as SMILES. Where a chain is given by its changes, count along the chain named.

With `N=C(N)NCCC(=O)O` [β-GPA, β-guanidinopropionic acid], the creatine uptake result in assay [1] and in assay [2] was “dose-dependent inhibition of creatine uptake” throughout.
